Test results as given in PubChem BioAssay (NCI).
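Compound exposure: 48 hours, 5 concentrations, 96-well plates. GI50 is the concentration that inhibits growth by half. Definition used: TGI = concentration required for complete inhibition of growth.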

Experiments:
Assay in all cases: growth of human tumour cells (NCI), 48 h
[1] = system: HL-60(TB) leukemia
[2] = system: MDA-MB-435
[3] = system: K-562 leukemia
[4] = system: HCT-116 colon
[5] = system: EKVX NSCLC
[6] = system: CCRF-CEM leukemia
[7] = system: HCC-2998 colon
[8] = system: UO-31 renal
[9] = system: PC-3 prostate
[10] = system: TK-10 renal
[11] = system: SK-MEL-28 melanoma
[12] = system: HT29 colon
[13] = system: NCI/ADR-RES ovarian
[14] = system: SK-MEL-2 melanoma
[15] = system: DU-145 prostate
[16] = system: U251 CNS
[17] = system: UACC-257 melanoma
[18] = system: IGROV1 ovarian
[19] = system: RXF 393 renal
[20] = system: LOX IMVI melanoma
[21] = system: MOLT-4 leukemia
[22] = system: M14 melanoma
[23] = system: MALME-3M melanoma
[24] = system: SR leukemia
[25] = system: A498 renal
[26] = system: MDA-MB-468 breast
[27] = system: SK-OV-3 ovarian
[28] = system: SF-295 CNS
[29] = system: CAKI-1 renal
[30] = system: NCI-H522 lung
[31] = system: MCF7 breast
[32] = system: HS 578T breast
[33] = system: ACHN renal
[34] = system: HCT-15 colon
[35] = system: KM12 colon
[36] = system: UACC-62 melanoma
[37] = system: NCI-H23 lung
[38] = system: SW-620 colon
[39] = system: SF-268 CNS
[40] = system: OVCAR-8 ovarian
[41] = system: RPMI-8226 leukemia
[42] = system: OVCAR-5 ovarian
[43] = system: MDA-MB-231 breast
[44] = system: NCI-H460 lung
[45] = system: OVCAR-4 ovarian
[46] = system: OVCAR-3 ovarian
[47] = system: NCI-H226 lung
[48] = system: SK-MEL-5 melanoma
[49] = system: BT-549 breast
[50] = system: T-47D breast
[51] = system: SNB-19 CNS
[52] = system: COLO 205 colon
[53] = system: SN12C renal
[54] = system: HOP-62 NSCLC
[55] = system: SF-539 CNS
[56] = system: 786-0 renal

Question: With `CN1CCN(c2ccc(C(=O)/C=C/c3cc(C(F)(F)F)cc(C(F)(F)F)c3)cc2)CC1` as the molecule, how does the GI50 [1] read?
Answer: 1040 nM

Question: And the TGI [1]?
Answer: 2790 nM

Question: What about the GI50 [2] of the same molecule?
Answer: 1600 nM

Question: What about the TGI [2] of the same molecule?
Answer: 3070 nM

Question: What about the GI50 [3] of the same molecule?
Answer: 1070 nM

Question: And the TGI [3]?
Answer: 6370 nM

Question: And the GI50 [4]?
Answer: 1150 nM

Question: What about the TGI [4] of the same molecule?
Answer: 2450 nM

Question: And the GI50 [5]?
Answer: 1870 nM

Question: What about the TGI [5] of the same molecule?
Answer: 3410 nM

Question: And the GI50 [6]?
Answer: 2380 nM

Question: What about the TGI [6] of the same molecule?
Answer: 5870 nM

Question: What about the GI50 [7] of the same molecule?
Answer: 1390 nM

Question: What about the TGI [7] of the same molecule?
Answer: 2680 nM

Question: What about the GI50 [8] of the same molecule?
Answer: 1460 nM

Question: What about the TGI [8] of the same molecule?
Answer: 2780 nM

Question: And the GI50 [9]?
Answer: 1640 nM

Question: And the TGI [9]?
Answer: 3320 nM

Question: And the GI50 [10]?
Answer: 2000 nM

Question: And the TGI [10]?
Answer: 3450 nM

Question: And the GI50 [11]?
Answer: 1680 nM

Question: What about the TGI [11] of the same molecule?
Answer: 3050 nM

Question: And the GI50 [12]?
Answer: 1620 nM

Question: And the TGI [12]?
Answer: 3410 nM

Question: And the GI50 [13]?
Answer: 1640 nM

Question: What about the TGI [13] of the same molecule?
Answer: 3640 nM

Question: What about the GI50 [14] of the same molecule?
Answer: 1730 nM

Question: And the TGI [14]?
Answer: 3230 nM

Question: And the GI50 [15]?
Answer: 1630 nM

Question: What about the TGI [15] of the same molecule?
Answer: 3040 nM

Question: And the GI50 [16]?
Answer: 1660 nM

Question: What about the TGI [16] of the same molecule?
Answer: 3180 nM

Question: And the GI50 [17]?
Answer: 1730 nM

Question: And the TGI [17]?
Answer: 3580 nM

Question: What about the GI50 [18] of the same molecule?
Answer: 1650 nM

Question: What about the TGI [18] of the same molecule?
Answer: 3150 nM

Question: What about the GI50 [19] of the same molecule?
Answer: 1190 nM

Question: What about the TGI [19] of the same molecule?
Answer: 2570 nM

Question: What about the GI50 [20] of the same molecule?
Answer: 1350 nM

Question: What about the TGI [20] of the same molecule?
Answer: 2630 nM

Question: What about the GI50 [21] of the same molecule?
Answer: 1420 nM

Question: And the TGI [21]?
Answer: 5010 nM

Question: And the GI50 [22]?
Answer: 1520 nM

Question: What about the TGI [22] of the same molecule?
Answer: 2970 nM

Question: What about the GI50 [23] of the same molecule?
Answer: 1660 nM

Question: What about the TGI [23] of the same molecule?
Answer: 3070 nM

Question: What about the GI50 [24] of the same molecule?
Answer: 1170 nM

Question: What about the TGI [24] of the same molecule?
Answer: 3930 nM

Question: What about the GI50 [25] of the same molecule?
Answer: 17900 nM

Question: And the TGI [25]?
Answer: 35600 nM

Question: What about the GI50 [26] of the same molecule?
Answer: 1240 nM

Question: What about the TGI [26] of the same molecule?
Answer: 2560 nM

Question: And the GI50 [27]?
Answer: 2600 nM

Question: What about the TGI [27] of the same molecule?
Answer: 6120 nM

Question: And the GI50 [28]?
Answer: 1470 nM

Question: What about the TGI [28] of the same molecule?
Answer: 2820 nM

Question: What about the GI50 [29] of the same molecule?
Answer: 1660 nM

Question: And the TGI [29]?
Answer: 3260 nM

Question: What about the GI50 [30] of the same molecule?
Answer: 1400 nM

Question: And the TGI [30]?
Answer: 2970 nM

Question: And the GI50 [31]?
Answer: 1200 nM

Question: What about the TGI [31] of the same molecule?
Answer: 2560 nM

Question: What about the GI50 [32] of the same molecule?
Answer: 4880 nM

Question: And the TGI [32]?
Answer: 34700 nM

Question: What about the GI50 [33] of the same molecule?
Answer: 1490 nM

Question: What about the TGI [33] of the same molecule?
Answer: 2820 nM

Question: And the GI50 [34]?
Answer: 1120 nM

Question: And the TGI [34]?
Answer: 2390 nM

Question: And the GI50 [35]?
Answer: 1760 nM

Question: What about the TGI [35] of the same molecule?
Answer: 3820 nM

Question: What about the GI50 [36] of the same molecule?
Answer: 1500 nM

Question: What about the TGI [36] of the same molecule?
Answer: 2860 nM

Question: And the GI50 [37]?
Answer: 1510 nM

Question: What about the TGI [37] of the same molecule?
Answer: 2970 nM

Question: What about the GI50 [38] of the same molecule?
Answer: 1810 nM

Question: And the TGI [38]?
Answer: 4510 nM

Question: And the GI50 [39]?
Answer: 1820 nM

Question: What about the TGI [39] of the same molecule?
Answer: 3710 nM

Question: And the GI50 [40]?
Answer: 1730 nM

Question: And the TGI [40]?
Answer: 4360 nM

Question: What about the GI50 [41] of the same molecule?
Answer: 1440 nM

Question: And the TGI [41]?
Answer: 3800 nM

Question: And the GI50 [42]?
Answer: 1680 nM

Question: And the TGI [42]?
Answer: 3200 nM

Question: And the GI50 [43]?
Answer: 1750 nM

Question: And the TGI [43]?
Answer: 3350 nM

Question: What about the GI50 [44] of the same molecule?
Answer: 2890 nM

Question: And the TGI [44]?
Answer: > 100000 nM

Question: What about the GI50 [45] of the same molecule?
Answer: 1520 nM

Question: And the TGI [45]?
Answer: 3490 nM

Question: What about the GI50 [46] of the same molecule?
Answer: 1450 nM

Question: What about the TGI [46] of the same molecule?
Answer: 2940 nM

Question: What about the GI50 [47] of the same molecule?
Answer: 1490 nM

Question: And the TGI [47]?
Answer: 3200 nM

Question: And the GI50 [48]?
Answer: 1550 nM

Question: What about the TGI [48] of the same molecule?
Answer: 2900 nM

Question: What about the GI50 [49] of the same molecule?
Answer: 1330 nM

Question: And the TGI [49]?
Answer: 2660 nM

Question: And the GI50 [50]?
Answer: 1270 nM

Question: And the TGI [50]?
Answer: 3100 nM

Question: And the GI50 [51]?
Answer: 1730 nM

Question: What about the TGI [51] of the same molecule?
Answer: 3100 nM

Question: What about the GI50 [52] of the same molecule?
Answer: 2030 nM

Question: And the TGI [52]?
Answer: 3870 nM

Question: What about the GI50 [53] of the same molecule?
Answer: 1300 nM

Question: What about the TGI [53] of the same molecule?
Answer: 2590 nM

Question: And the GI50 [54]?
Answer: 1860 nM

Question: What about the TGI [54] of the same molecule?
Answer: 3750 nM

Question: What about the GI50 [55] of the same molecule?
Answer: 1640 nM

Question: What about the TGI [55] of the same molecule?
Answer: 3000 nM

Question: And the GI50 [56]?
Answer: 1680 nM

Question: What about the TGI [56] of the same molecule?
Answer: 3110 nM
